Data published in EP1586565A1, “Substituted polycyclic aryl and heteroaryl pyrazinones useful for selective inhibition of the coagulation cascade” (Pharmacia Corporation, priority 1999, dated 2000).

Target: T1, Human factor Xa (Homo sapiens, UniProt P00742)
T1 construct: leads from XII to XIIa to XIa to IXa and to the conversion of X to Xa; purchased Enzyme Research Laboratories, South Bend IN
Assay: Xa Assay
Format: biochemical
Conditions: 100 µM

T1 sequence (P00742 235-488 limits assumed): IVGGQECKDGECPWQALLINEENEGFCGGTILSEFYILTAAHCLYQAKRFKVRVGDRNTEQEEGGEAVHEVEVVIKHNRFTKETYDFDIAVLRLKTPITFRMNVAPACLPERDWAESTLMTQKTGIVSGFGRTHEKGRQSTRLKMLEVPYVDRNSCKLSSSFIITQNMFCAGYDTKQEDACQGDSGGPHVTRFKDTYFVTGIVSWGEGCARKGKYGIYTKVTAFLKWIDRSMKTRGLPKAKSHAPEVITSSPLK
T1 sequence (P00742 41-179 limits assumed): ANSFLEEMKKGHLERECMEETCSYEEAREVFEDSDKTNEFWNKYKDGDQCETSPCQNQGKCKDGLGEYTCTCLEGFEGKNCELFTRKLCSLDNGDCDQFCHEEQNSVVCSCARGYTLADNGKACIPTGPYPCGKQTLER

SMILES | % Inhibition Factor Xa (100 µM)
O=C(Cn1c(-c2cccc(Cl)c2)c(Cl)nc(NCc2ccccc2)c1=O)NCCc1ccncc1 [Example E-0085] | 0%
O=C(Cn1c(-c2ccc(Cl)cc2)c(Cl)nc(NCCc2ccc(Cl)cc2)c1=O)NCCc1ccncc1 [Example E-0028] | 0%
O=C(Cn1c(-c2ccc(Cl)cc2)c(Cl)nc(NCCc2cccnc2)c1=O)NCCc1ccncc1 [Example E-0029] | 0%
O=C(Cn1c(-c2cccc(Cl)c2)c(Cl)nc(NCCc2ccc(Cl)cc2)c1=O)NCCc1cccnc1 [Example E-0095] | 4%
O=C(Cn1c(-c2ccc(-c3ccccc3)cc2)c(Cl)nc(NCCc2ccccc2)c1=O)NCCc1ccncc1 [Example E-0050] | 0%
O=C(Cn1c(-c2cccc(Cl)c2)c(Cl)nc(NCCc2cccc(Cl)c2)c1=O)NCCc1cccnc1 [Example E-0080] | 4%
COc1ccc(-c2c(Cl)nc(NCCc3ccccc3)c(=O)n2CC(=O)NCCc2ccncc2)cc1 [Example E-0100] | 6%

Same assay, conditions: % inhibition at 30 µM (cells with % or %@30, bare 0)

SMILES | IC50 or % Inhibition Factor Xa (30 µM)
N=C(N)c1ccc(CNC(=O)Cn2c(-c3ccc4c(c3)OCO4)c(Cl)nc(NCCc3ccccc3)c2=O)cc1 [1471-47] | 22%
N=C(N)c1ccc(CNC(=O)Cn2c(-c3ccccc3)c(Cl)nc(NCCCN3CCCC3=O)c2=O)cc1 [1507-19] | 4%
COC(=O)c1cccc(-c2c(Cl)nc(NC(C)C)c(=O)n2CC(=O)NCc2ccc(C(=N)N)cc2)c1 [Example 64] | 19%
N=C(N)c1ccc(CNC(=O)Cn2c(-c3ccccc3)c(Cl)nc(NCCCCc3ccccc3)c2=O)cc1 [1507-43] | 21%
C[C@H](C(=O)NCc1ccc(C(=N)N)cc1)n1c(-c2ccccc2)c(Cl)nc(NCc2ccccc2)c1=O [1517-05] | 0%
Cc1c(Cl)nc(NCCN2CCOCC2)c(=O)n1CC(=O)NCc1ccc(C(=N)N)cc1 [1471-4] | 0%
N=C(N)c1ccc(CNC(=O)Cn2c(-c3ccccc3)c(Cl)nc(NCCc3ccc(Cl)c(Cl)c3)c2=O)cc1 [1507-44] | 9%
N=C(N)c1ccc(CNC(=O)Cn2c(-c3ccccc3)c(Cl)nc(NCCc3ccc(Cl)cc3)c2=O)cc1 [1471-10] | 45%
CCc1c(Cl)nc(NCc2ccncc2)c(=O)n1CC(=O)NCc1ccc(C(=N)N)cc1 [1471-59] | 0%
N=C(N)c1ccc(CNC(=O)Cn2c(-c3ccccc3)c(Cl)nc(NCCC3=CCCCC3)c2=O)cc1 [1507-17] | 16%
N=C(N)c1ccc(CNC(=O)Cn2c(-c3ccc(Cl)cc3)c(Cl)nc(NCCc3cccc(Cl)c3)c2=O)cc1 [1471-22] | 28%
N=C(N)c1ccc(CNC(=O)Cn2c(-c3c(Cl)cccc3Cl)c(Cl)nc(NC3CCC3)c2=O)cc1 [1517-12] | 0%
CCc1c(Cl)nc(NCCc2cccnc2)c(=O)n1CC(=O)NCc1ccc(C(=N)N)cc1 [1471-64] | 2%
CCc1c(Cl)nc(NCCc2ccncc2)c(=O)n1CC(=O)NCc1ccc(C(=N)N)cc1 [1471-61] | 0%
N=C(N)c1ccc(CNC(=O)Cn2c(-c3ccc4c(c3)OCO4)c(Cl)nc(NCCc3ccc(Cl)cc3)c2=O)cc1 [1471-42] | 15%
N=C(N)c1ccc(CNC(=O)Cn2c(-c3ccc(Cl)cc3)c(Cl)nc(NCCc3ccc(Cl)cc3)c2=O)cc1 [1471-18] | 26%
N=C(N)c1ccc(CNC(=O)Cn2c(-c3c(Cl)cccc3Cl)c(Cl)nc(NCCc3ccccc3)c2=O)cc1 [1517-18] | 0%
Nc1n[nH]c2ccc(CNC(=O)Cn3c(-c4ccccc4)cnc(NCCc4ccccc4)c3=O)cc12 [Example 38] | 22%
N=C(N)c1ccc(CNC(=O)Cn2c(-c3ccsc3)c(Cl)nc(NCc3ccccc3)c2=O)cc1 [1517-01] | 0%
CCCCCNc1nc(Cl)c(-c2ccccc2)n(CC(=O)NCc2ccc(C(=N)N)cc2)c1=O [1517-48] | 0%

SMILES | IC50 or % Inhibition Factor Xa (30 µM)
N=C(N)c1ccc(CNC(=O)Cn2c(-c3ccc4c(c3)OCO4)c(Cl)nc(NCCc3cccc(Cl)c3)c2=O)cc1 [1471-46] | 21%
CCc1c(Cl)nc(NCCc2ccccc2)c(=O)n1CC(=O)NCc1ccc(C(=N)N)cc1 [1471-63] | 2%
C[C@H](C(=O)NCc1ccc(C(=N)N)cc1)n1c(-c2ccccc2)c(Cl)nc(NCCc2ccccc2)c1=O [1517-17] | 0%
N=C(N)NC/C=C\CNC(=O)Cn1c(-c2ccccc2)cnc(NCCc2ccccc2)c1=O [Example 37] | 0%
N=C(N)c1ccc(CNC(=O)Cn2c(-c3ccccc3)c(Cl)nc(NCc3ccncc3)c2=O)cc1 [1471-11] | 9%
C[C@H](C(=O)NCc1ccc(C(=N)N)cc1)n1c(-c2ccccc2)c(Cl)nc(NCCc2cccc(Cl)c2)c1=O [1517-23] | 0%
N=C(N)c1ccc(CNC(=O)Cn2c(Cc3ccccc3)c(Cl)nc(NCCc3ccccc3)c2=O)cc1 [Example 20] | 6%@30
N=C(N)c1ccc(CNC(=O)Cn2c(-c3ccc(Cl)cc3)c(Cl)nc(NCCc3ccccc3)c2=O)cc1 [1471-23] | 36%
N=C(N)c1ccc(CNC(=O)Cn2c(-c3ccccc3)c(Cl)nc(NCC(c3ccccc3)c3ccccc3)c2=O)cc1 [1507-09] | 13%
CSCC(C(=O)NCc1ccc(C(=N)N)cc1)n1c(-c2ccccc2)c(Cl)nc(NC2CCC2)c1=O (stereo not drawn) [1517-10] | 0%
N=C(N)c1ccc(CNC(=O)Cn2c(-c3c(Cl)cccc3Cl)c(Cl)nc(NCc3ccccc3)c2=O)cc1 [1517-06] | 0%
N=C(N)c1ccc(CNC(=O)Cn2c(-c3ccccc3)c(Cl)nc(NCCc3ccncc3)c2=O)cc1 [1471-13] | 0%
CN(C)CCNc1nc(Cl)c(-c2ccccc2)n(CC(=O)NCc2ccc(C(=N)N)cc2)c1=O [1512-15] | 6%
CCCNc1nc(Cl)c(-c2ccccc2)n(CC(=O)NCc2ccc(C(=N)N)cc2)c1=O [1517-33] | 0%
CC(C)Nc1nc(Cl)c(-c2cccc(N)c2)n(CC(=O)NCCc2ccc(C(=N)N)cc2)c1=O [Example 62] | 10%
N=C(N)c1ccc(CNC(=O)Cn2c(-c3ccsc3)c(Cl)nc(NCCc3cccc(Cl)c3)c2=O)cc1 [1517-19] | 0%
C[C@@H](C(=O)NCc1ccc(C(=N)N)cc1)n1c(-c2ccccc2)c(Cl)nc(NCCc2ccccc2)c1=O [1517-15] | 0%
N=C(N)c1ccc(CNC(=O)Cn2c(-c3ccccc3)c(Cl)nc(NCc3cc(C(F)(F)F)cc(C(F)(F)F)c3)c2=O)cc1 [1507-40] | 11%
N=C(N)c1ccc(CNC(=O)Cn2c(-c3cccc(Cl)c3)c(Cl)nc(NCCc3cccc(Cl)c3)c2=O)cc1 [1471-30] | 41%
CCOc1ccccc1CNc1nc(Cl)c(-c2ccccc2)n(CC(=O)NCc2ccc(C(=N)N)cc2)c1=O [1512-11] | 5%

SMILES | IC50 or % Inhibition Factor Xa (30 µM)
N=C(N)c1ccc(CNC(=O)Cn2c(-c3ccccc3)c(Cl)nc(NCc3cc(F)cc(F)c3)c2=O)cc1 [1512-39] | 4%
N=C(N)c1ccc(CNC(=O)Cn2c(-c3ccccc3)c(Cl)nc(NC3CCc4ccccc43)c2=O)cc1 (stereo not drawn) [1507-02] | 9%
CSc1ccc(N)cc1-c1c(Cl)nc(NC(C)C)c(=O)n1CC(=O)NCc1ccc(C(=N)N)cc1 [compound 76] | 0%
N=C(N)c1ccc(CNC(=O)Cn2c(-c3cccc(Cl)c3)c(Cl)nc(NCCc3ccccc3)c2=O)cc1 [1471-31] | 17%
CC(C)Nc1ncc(-c2cccc(N)c2)n(CC(=O)NCc2ccc(C(=N)N)c(F)c2)c1=O [Example 43] | 0%
Cc1c(Cl)nc(NCCc2cccnc2)c(=O)n1CC(=O)NCc1ccc(C(=N)N)cc1 [1471-8] | 27%
Cc1c(Cl)nc(NCCc2ccc(Cl)cc2)c(=O)n1CC(=O)NCc1ccc(C(=N)N)cc1 [1471-2] | 10%
N=C(N)c1ccc(CNC(=O)Cn2c(-c3ccccc3)c(Cl)nc(NC3CCCCC3)c2=O)cc1 [1517-25] | 0%
N=C(N)c1ccc(CNC(=O)Cn2c(-c3ccccc3)c(Cl)nc(NCc3cc(F)ccc3F)c2=O)cc1 [1512-36] | 9%
N=C(N)c1ccc(CNC(=O)Cn2c(-c3cccc(N)c3)c(Cl)nc(NC3CCC3)c2=O)cc1F [Example 40] | 0%
CCc1c(Cl)nc(NCCN2CCOCC2)c(=O)n1CC(=O)NCc1ccc(C(=N)N)cc1 [1471-60] | 0%
Nc1n[nH]c2cc(CNC(=O)Cn3c(-c4ccccc4)cnc(NCCc4ccccc4)c3=O)ccc12 [Example 39] | 0%
N=C(N)c1ccc(CNC(=O)Cn2c(-c3cccc(Cl)c3)c(Cl)nc(NCCc3ccncc3)c2=O)cc1 [1471-29] | 21%
CC(C)(C)CCNc1nc(Cl)c(-c2ccccc2)n(CC(=O)NCc2ccc(C(=N)N)cc2)c1=O [1517-41] | 0%
N=C(N)c1ccc(CNC(=O)Cn2c(-c3ccc4c(c3)OCO4)c(Cl)nc(NCc3ccncc3)c2=O)cc1 [1471-43] | 18%
CC(C)Nc1nc(Cl)c(-c2cccc(N)c2)n(CC(=O)NCc2ccc(C(=N)N)c(F)c2)c1=O [Example 42] | 0%
N=C(N)c1ccc(CNC(=O)Cn2c(-c3ccccc3)c(Cl)nc(NC3CCCCCC3)c2=O)cc1 [1512-16] | 10%
CCCCC(CC)Nc1nc(Cl)c(-c2ccccc2)n(CC(=O)NCc2ccc(C(=N)N)cc2)c1=O (stereo not drawn) [1512-12] | 5%
CC(C)N(C)c1nc(Cl)c(-c2ccccc2)n(CC(=O)NCc2ccc(C(=N)N)cc2)c1=O [1517-31] | 0%
